The values below come from patent publication US10729680B2, “5-substituted 2-(morpholin-4-yl)-1,7-naphthyridines” (BAYER PHARMA AKTIENGESELLSCHAFT, priority 2016, dated 2020).

Chain of full-length human ATR protein (ATR/ATRIP) (Q13535 other isoform, or with tags, fused parts or gaps): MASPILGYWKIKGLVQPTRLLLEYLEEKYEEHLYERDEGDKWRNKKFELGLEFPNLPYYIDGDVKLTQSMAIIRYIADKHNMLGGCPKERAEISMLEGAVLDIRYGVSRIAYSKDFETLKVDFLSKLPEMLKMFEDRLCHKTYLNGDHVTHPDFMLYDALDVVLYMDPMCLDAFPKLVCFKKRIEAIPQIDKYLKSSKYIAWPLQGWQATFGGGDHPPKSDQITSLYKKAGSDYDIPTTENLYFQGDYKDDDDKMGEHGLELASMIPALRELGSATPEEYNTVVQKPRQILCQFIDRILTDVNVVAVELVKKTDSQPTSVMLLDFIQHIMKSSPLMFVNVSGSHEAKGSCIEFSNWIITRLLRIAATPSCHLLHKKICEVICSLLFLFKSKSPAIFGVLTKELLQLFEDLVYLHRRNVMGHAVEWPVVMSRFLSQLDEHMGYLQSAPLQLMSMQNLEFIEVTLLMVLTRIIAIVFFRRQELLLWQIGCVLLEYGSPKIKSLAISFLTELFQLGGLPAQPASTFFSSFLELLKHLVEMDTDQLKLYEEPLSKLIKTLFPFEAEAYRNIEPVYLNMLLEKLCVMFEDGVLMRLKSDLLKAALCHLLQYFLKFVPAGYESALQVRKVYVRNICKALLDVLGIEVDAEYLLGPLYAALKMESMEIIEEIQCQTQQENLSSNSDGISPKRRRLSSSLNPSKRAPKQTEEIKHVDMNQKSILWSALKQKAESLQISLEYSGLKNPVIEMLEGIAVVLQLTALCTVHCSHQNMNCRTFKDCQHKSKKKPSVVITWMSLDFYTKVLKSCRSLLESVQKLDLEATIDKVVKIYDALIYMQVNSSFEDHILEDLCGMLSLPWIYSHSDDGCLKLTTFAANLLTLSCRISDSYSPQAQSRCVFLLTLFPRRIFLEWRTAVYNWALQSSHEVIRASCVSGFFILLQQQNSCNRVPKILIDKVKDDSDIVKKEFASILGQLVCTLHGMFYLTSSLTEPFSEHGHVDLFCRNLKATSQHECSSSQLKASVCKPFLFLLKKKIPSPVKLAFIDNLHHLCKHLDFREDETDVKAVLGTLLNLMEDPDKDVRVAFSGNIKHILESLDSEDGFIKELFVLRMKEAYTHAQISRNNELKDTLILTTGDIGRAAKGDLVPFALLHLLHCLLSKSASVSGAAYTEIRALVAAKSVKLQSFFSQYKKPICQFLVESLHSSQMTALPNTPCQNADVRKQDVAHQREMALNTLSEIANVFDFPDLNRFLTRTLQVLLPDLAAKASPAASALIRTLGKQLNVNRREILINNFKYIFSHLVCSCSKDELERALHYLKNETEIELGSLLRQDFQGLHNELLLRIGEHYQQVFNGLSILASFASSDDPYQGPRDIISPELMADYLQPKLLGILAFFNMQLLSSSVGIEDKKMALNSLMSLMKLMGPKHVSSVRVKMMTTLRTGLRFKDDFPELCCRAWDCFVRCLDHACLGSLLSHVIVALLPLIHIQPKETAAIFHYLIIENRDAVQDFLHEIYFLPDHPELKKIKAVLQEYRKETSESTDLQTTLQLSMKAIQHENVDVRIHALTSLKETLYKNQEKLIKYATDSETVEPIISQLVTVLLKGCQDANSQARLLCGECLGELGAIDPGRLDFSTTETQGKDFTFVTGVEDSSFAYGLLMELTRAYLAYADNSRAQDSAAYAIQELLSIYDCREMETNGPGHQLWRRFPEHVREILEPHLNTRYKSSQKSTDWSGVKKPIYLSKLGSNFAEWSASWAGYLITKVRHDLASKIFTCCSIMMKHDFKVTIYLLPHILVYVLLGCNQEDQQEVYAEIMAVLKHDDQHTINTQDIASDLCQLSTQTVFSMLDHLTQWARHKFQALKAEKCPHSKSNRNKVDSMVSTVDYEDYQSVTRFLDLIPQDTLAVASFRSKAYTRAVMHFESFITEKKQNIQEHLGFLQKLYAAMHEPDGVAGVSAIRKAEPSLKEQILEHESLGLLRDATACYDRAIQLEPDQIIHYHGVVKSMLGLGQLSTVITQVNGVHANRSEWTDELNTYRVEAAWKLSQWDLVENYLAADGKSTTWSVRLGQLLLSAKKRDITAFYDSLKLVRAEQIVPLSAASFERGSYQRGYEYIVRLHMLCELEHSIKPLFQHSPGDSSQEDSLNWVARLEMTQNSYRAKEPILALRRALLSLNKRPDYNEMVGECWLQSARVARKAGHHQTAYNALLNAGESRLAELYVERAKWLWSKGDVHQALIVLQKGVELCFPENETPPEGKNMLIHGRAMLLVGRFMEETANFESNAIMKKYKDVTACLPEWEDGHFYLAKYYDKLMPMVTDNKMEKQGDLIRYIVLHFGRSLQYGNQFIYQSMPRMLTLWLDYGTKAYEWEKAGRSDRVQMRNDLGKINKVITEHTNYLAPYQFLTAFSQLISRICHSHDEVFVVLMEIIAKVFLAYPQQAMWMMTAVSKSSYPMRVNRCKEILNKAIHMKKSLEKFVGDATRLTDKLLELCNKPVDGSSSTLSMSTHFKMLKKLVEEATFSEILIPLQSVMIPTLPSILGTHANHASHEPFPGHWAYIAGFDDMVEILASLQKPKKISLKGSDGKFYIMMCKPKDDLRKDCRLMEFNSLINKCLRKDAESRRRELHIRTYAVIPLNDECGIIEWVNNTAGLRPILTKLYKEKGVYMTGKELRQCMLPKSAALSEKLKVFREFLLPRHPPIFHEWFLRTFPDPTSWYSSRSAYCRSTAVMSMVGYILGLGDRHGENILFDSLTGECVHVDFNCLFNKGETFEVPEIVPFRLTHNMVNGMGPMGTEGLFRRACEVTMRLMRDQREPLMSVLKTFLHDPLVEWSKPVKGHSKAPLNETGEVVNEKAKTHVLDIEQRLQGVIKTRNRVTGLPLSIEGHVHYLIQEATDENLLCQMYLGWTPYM
Chain of full-length human ATR protein (ATR/ATRIP) (Q8WXE1 other isoform, or with tags, fused parts or gaps partner): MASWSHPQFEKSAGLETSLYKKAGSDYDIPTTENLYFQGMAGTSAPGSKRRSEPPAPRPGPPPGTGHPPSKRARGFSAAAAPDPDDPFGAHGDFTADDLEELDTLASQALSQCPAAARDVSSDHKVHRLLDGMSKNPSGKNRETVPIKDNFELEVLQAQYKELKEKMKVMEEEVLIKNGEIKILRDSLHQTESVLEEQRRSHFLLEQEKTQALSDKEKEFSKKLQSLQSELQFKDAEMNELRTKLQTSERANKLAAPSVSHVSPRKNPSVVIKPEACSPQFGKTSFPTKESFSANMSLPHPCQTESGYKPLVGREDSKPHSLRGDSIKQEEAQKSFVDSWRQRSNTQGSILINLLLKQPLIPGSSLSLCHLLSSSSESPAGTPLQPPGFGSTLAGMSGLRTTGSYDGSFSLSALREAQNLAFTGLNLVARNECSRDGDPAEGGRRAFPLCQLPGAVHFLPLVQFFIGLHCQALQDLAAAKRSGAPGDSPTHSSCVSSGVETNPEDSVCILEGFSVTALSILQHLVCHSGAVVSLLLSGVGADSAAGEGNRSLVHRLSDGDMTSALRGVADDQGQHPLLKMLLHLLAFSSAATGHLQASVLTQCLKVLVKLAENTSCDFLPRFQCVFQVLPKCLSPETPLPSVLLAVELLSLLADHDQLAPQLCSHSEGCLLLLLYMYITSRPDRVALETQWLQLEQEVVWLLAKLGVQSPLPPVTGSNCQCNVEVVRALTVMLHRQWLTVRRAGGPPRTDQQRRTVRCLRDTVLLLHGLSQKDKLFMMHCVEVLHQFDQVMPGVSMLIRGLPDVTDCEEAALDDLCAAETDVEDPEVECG

The assay has as its target full-length human ATR protein (ATR/ATRIP) (Homo sapiens (Human), UniProt Q13535). In words: Binding Assay ATR (TR-FRET, tracer A displacement). To be noted: displacement of fluorescent tracer A from GST-ATR/ATRIP. The text has this: To determine of binding activity of the test compounds, full-length human ATR protein was expressed and purified together with ATRIP as described above. Furthermore, a fluorescently labelled compound (tracer A as described above) was used as a tracer molecule. Detection of the binding event of the tracer was achieved by time-resolved fluorescence energy transfer (TR-FRET). We used an anti-GST-Terbium antibody (CisBio) that binds to the GST-tag at the N-terminus of ATR-kinase. Excitation of Terbium with 337 nm light results in emission of fluorescent light with 545 nm. In case a tetrameric complex has formed (antiGST-Tb+GST-ATR+Strp2-ATRIP+tracer), part of the energy will be transferred from the Terbium to the fluorophore that itself emits light of 570 nm. Displacement of the fluorescent tracer by a test compound leads to a reduction of the TR-FRET-signal.
For the assay 50 nl of a 100-fold concentrated solution of the test compound in DMSO was pipetted into a black low volume 384 well microtiter plate (MTP, Greiner Bio-One, Frickenhausen, Germany). To prepare the ATR-working solution, ATR/ATRIP stock solution was diluted in assay buffer [50 mM HEPES (pH 7.0), 10 mM MgCl2, 1 mM DTT, 0.01% (w/v) Igepal, 0.01% (w/v) BSA] to 4.2 nM protein concentration (concentration may vary from lot to lot of protein preparation). AntiGST-Tb antibody was diluted to 4.2 nM. The ATR-working solution was incubated for 30 min at 22° C. prior to dispensing to pre-form the complex of antiGST-Tb+GST-ATR+ATRIP. Then, 3 μl of the ATR-working solution were added to the test compound and the mixture was incubated for 10 min at 22° C. to allow pre-binding of the test compounds to ATR/ATRIP. Then, 2 μl of a 100 nM solution of tracer A in assay buffer were added to the ATR-working solution. The resulting mixture was incubated for 30 min at 22° C. The measurement of the TR-FRET signal was performed in a standard HTRF-compatible MTP reader instrument (e.g. BMG Pherastar) by recording the fluorescence emissions at 545 nm and 570 nm after excitation at 337-350 nm. The ratio between emission at 570 nm divided by emission at 545 nm was calculated to give the well ratio. The experimental data (well ratios) were normalised by the following way: positive control contained ATR-working solution plus tracer A solution (=0% inhibition), the negative control contained all components except GST-ATR/ATRIP (=100% inhibition). Usually the compounds were tested on the same MTP in 11 different concentrations in the range of 20 μM to 0.1 nM (20 μM, 5.9 μM, 1.7 μM, 0.51 μM, 0.15 μM, 44 nM, 13 nM, 3.8 nM, 1.1 nM, 0.33 nM and 0.1 nM). The dilution series were prepared separately before the assay on the level of the 100 fold concentrated solutions in DMSO by serial 1:3.4 dilutions in duplicate values for each concentration. IC50 values were calculated by a 4 parameter fit using standard software (GraphPad prism or equivalent).
Take `Cc1cnc(-c2ccn[nH]2)c2nc(N3CCOC[C@H]3C)cc(P(C)(C)=O)c12` [Example 18, 4-(dimethylphosphoryl)-5-methyl-2-[(3R)-3-methylmorpholin-4-yl]-8-(1H-pyrazol-5-yl)-1,7-naphthyridine]: the IC50 came to 66.4 nM. The molecule `Cc1cnc(-c2ccn[nH]2)c2nc(N3CCOC[C@H]3C)cc(P(C)(=O)OCC(C)C)c12` (stereo partly drawn) [Example 19, 2-methylpropyl methyl{5-methyl-2-[(3R)-3-methylmorpholin-4-yl]-8-(1H-pyrazol-5-yl)-1,7-naphthyridin-4-yl}phosphinate] returned an IC50 of 34.9 nM. In turn, `Cc1cnc(-c2ccn[nH]2)c2nc(N3CCOC[C@H]3C)cc(-c3ccccc3)c12` [Example 20, 5-methyl-2-[(3R)-3-methylmorpholin-4-yl]-4-phenyl-8-(1H-pyrazol-5-yl)-1,7-naphthyridine] yielded an IC50 of 24.4 nM. Regarding `Cc1cnc(-c2ccn[nH]2)c2nc(N3CCOC[C@H]3C)cc(-c3ccc4c(c3)OCCO4)c12` [Example 21, 4-(2,3-dihydro-1,4-benzodioxin-6-yl)-5-methyl-2-[(3R)-3-methylmorpholin-4-yl]-8-(1H-pyrazol-5-yl)-1,7-naphthyridine], the IC50 is 17.9 nM. In the case of `Cc1cnc(-c2ccn[nH]2)c2nc(N3CCOC[C@H]3C)cc(-c3ccc(Cl)cc3Cl)c12` [Example 22, 4-(2,4-dichlorophenyl)-5-methyl-2-[(3R)-3-methylmorpholin-4-yl]-8-(1H-pyrazol-5-yl)-1,7-naphthyridine] it was 16.4 nM. Molecule `Cc1cnc(-c2ccn[nH]2)c2nc(N3CCOC[C@H]3C)cc(-c3cccc(CO)c3)c12` [Example 23, (3-{5-methyl-2-[(3R)-3-methylmorpholin-4-yl]-8-(1H-pyrazol-5-yl)-1,7-naphthyridin-4-yl}phenyl)methanol] showed an IC50 of 14 nM. For `Cc1cnc(-c2ccn[nH]2)c2nc(N3CCOC[C@H]3C)cc(-c3ccc(F)cc3)c12` [Example 24, 4-(4-fluorophenyl)-5-methyl-2-[(3R)-3-methylmorpholin-4-yl]-8-(1H-pyrazol-5-yl)-1,7-naphthyridine], the IC50 turned out to be 34.7 nM. In the case of `COc1ccc(-c2cc(N3CCOC[C@H]3C)nc3c(-c4ccn[nH]4)ncc(C)c23)cc1` [Example 25, 4-(4-methoxyphenyl)-5-methyl-2-[(3R)-3-methylmorpholin-4-yl]-8-(1H-pyrazol-5-yl)-1,7-naphthyridine] it was 25.4 nM; in that of `Cc1cnc(-c2ccn[nH]2)c2nc(N3CCOC[C@H]3C)cc(-c3cc(F)cc(F)c3F)c12` [Example 26, 5-methyl-2-[(3R)-3-methylmorpholin-4-yl]-8-(1H-pyrazol-5-yl)-4-(2,3,5-trifluorophenyl)-1,7-naphthyridine], 11.2 nM. In the case of `COc1ccc(-c2cc(N3CCOC[C@H]3C)nc3c(-c4ccn[nH]4)ncc(C)c23)cn1` [Example 27, 4-(6-methoxypyridin-3-yl)-5-methyl-2-[(3R)-3-methylmorpholin-4-yl]-8-(1H-pyrazol-5-yl)-1,7-naphthyridine] it was 15.4 nM. Next, `Cc1cnc(-c2ccn[nH]2)c2nc(N3CCOC[C@H]3C)cc(-c3ccc([S+](C)[O-])cc3)c12` (stereo partly drawn) [Example 29, 5-methyl-2-[(3R)-3-methylmorpholin-4-yl]-4-[4-(methylsulfinyl)phenyl]-8-(1H-pyrazol-5-yl)-1,7-naphthyridine]: 29.1 nM.

`COc1cccc(-c2cc(N3CCOC[C@H]3C)nc3c(-c4ccn[nH]4)ncc(C)c23)c1F` [Example 30, 4-(2-fluoro-3-methoxyphenyl)-5-methyl-2-[(3R)-3-methylmorpholin-4-yl]-8-(1H-pyrazol-5-yl)-1,7-naphthyridine]: the concentration for half-maximal inhibition (IC50) worked out at 17.5 nM.

`Cc1cnc(-c2ccn[nH]2)c2nc(N3CCOC[C@H]3C)cc(-c3ccccc3S(C)(=O)=O)c12` [Example 31, 5-methyl-2-[(3R)-3-methylmorpholin-4-yl]-4-[2-(methylsulfonyl)phenyl]-8-(1H-pyrazol-5-yl)-1,7-naphthyridine] had an IC50 of 47.2 nM. In the case of `Cc1cnc(-c2ccn[nH]2)c2nc(N3CCOC[C@H]3C)cc(-c3ccc(NS(C)(=O)=O)cc3)c12` [Example 32, N-(4-{5-methyl-2-[(3R)-3-methylmorpholin-4-yl]-8-(1H-pyrazol-5-yl)-1,7-naphthyridin-4-yl}phenyl)methanesulfonamide] it was 4.31 nM; in that of `Cc1cnc(-c2ccn[nH]2)c2nc(N3CCOC[C@H]3C)cc(C3=CCCC3)c12` [Example 33, 4-(cyclopent-1-en-1-yl)-5-methyl-2-[(3R)-3-methylmorpholin-4-yl]-8-(1H-pyrazol-5-yl)-1,7-naphthyridine], 26.5 nM; in that of `Cc1cnc(-c2ccn[nH]2)c2nc(N3CCOC[C@H]3C)cc(-c3ccc(C(=O)N(C)C)cc3)c12` [Example 35, N,N-dimethyl-4-{5-methyl-2-[(3R)-3-methylmorpholin-4-yl]-8-(1H-pyrazol-5-yl)-1,7-naphthyridin-4-yl}benzamide], 28.8 nM. Consider `Cc1cc(-c2cc(N3CCOC[C@H]3C)nc3c(-c4ccn[nH]4)ncc(C)c23)ccc1Cl` [Example 36, 4-(4-chloro-3-methylphenyl)-5-methyl-2-[(3R)-3-methylmorpholin-4-yl]-8-(1H-pyrazol-5-yl)-1,7-naphthyridine], for which the IC50 was 456 nM.

In turn, `COc1cccc(-c2cc(N3CCOC[C@H]3C)nc3c(-c4ccn[nH]4)ncc(C)c23)c1OC` [Example 37, 4-(2,3-dimethoxyphenyl)-5-methyl-2-[(3R)-3-methylmorpholin-4-yl]-8-(1H-pyrazol-5-yl)-1,7-naphthyridine] yielded a concentration for half-maximal inhibition (IC50) of 13.8 nM.

Regarding `COc1cc(Cl)ccc1-c1cc(N2CCOC[C@H]2C)nc2c(-c3ccn[nH]3)ncc(C)c12` [Example 38, 4-(4-chloro-2-methoxyphenyl)-5-methyl-2-[(3R)-3-methylmorpholin-4-yl]-8-(1H-pyrazol-5-yl)-1,7-naphthyridine], the IC50 was determined as 47.9 nM. Next, `CSc1ccc(-c2cc(N3CCOC[C@H]3C)nc3c(-c4ccn[nH]4)ncc(C)c23)cc1` [Example 39, 5-methyl-2-[(3R)-3-methylmorpholin-4-yl]-4-[4-(methylsulfanyl)phenyl]-8-(1H-pyrazol-5-yl)-1,7-naphthyridine]: 31.9 nM; `Cc1cnc(-c2ccn[nH]2)c2nc(N3CCOC[C@H]3C)cc(-c3cccc(N(C)C)c3)c12` [Example 40, N,N-dimethyl-3-{5-methyl-2-[(3R)-3-methylmorpholin-4-yl]-8-(1H-pyrazol-5-yl)-1,7-naphthyridin-4-yl}aniline]: 34.3 nM. In the case of `Cc1cnc(-c2ccn[nH]2)c2nc(N3CCOC[C@H]3C)cc(-c3cccc(S(C)(=O)=O)c3)c12` [Example 41, 5-methyl-2-[(3R)-3-methylmorpholin-4-yl]-4-[3-(methylsulfonyl)phenyl]-8-(1H-pyrazol-5-yl)-1,7-naphthyridine] it was 24.9 nM.

Molecule `COc1cc(OC)cc(-c2cc(N3CCOC[C@H]3C)nc3c(-c4ccn[nH]4)ncc(C)c23)c1` [Example 42, 4-(3,5-dimethoxyphenyl)-5-methyl-2-[(3R)-3-methylmorpholin-4-yl]-8-(1H-pyrazol-5-yl)-1,7-naphthyridine] displayed an IC50 of 112 nM.

In turn, `Cc1cnc(-c2ccn[nH]2)c2nc(N3CCOC[C@H]3C)cc(-c3ccnc4ccccc34)c12` [Example 43, 5-methyl-2-[(3R)-3-methylmorpholin-4-yl]-8-(1H-pyrazol-5-yl)-4-(quinolin-4-yl)-1,7-naphthyridine] gave an IC50 of 36 nM.

On to `Cc1cnc(-c2ccn[nH]2)c2nc(N3CCOC[C@H]3C)cc(-c3cccc4[nH]ccc34)c12` [Example 44, 4-(1H-indol-4-yl)-5-methyl-2-[(3R)-3-methylmorpholin-4-yl]-8-(1H-pyrazol-5-yl)-1,7-naphthyridine], for which the half-maximal inhibitory concentration (IC50) was 35.5 nM.

In turn, `Cc1cnc(-c2ccn[nH]2)c2nc(N3CCOC[C@H]3C)cc(-c3ccc4cc[nH]c4c3)c12` [Example 45, 4-(1H-indol-6-yl)-5-methyl-2-[(3R)-3-methylmorpholin-4-yl]-8-(1H-pyrazol-5-yl)-1,7-naphthyridine] registered an IC50 of 94.7 nM.
